Assay results from patent US12421225B2, “Heteroaromatic amide derivative and medicament containing the same” (KAKEN PHARMACEUTICAL CO., LTD., priority 2018, dated 2025).

Each molecule was assayed against human Nav1.7 (Homo sapiens (Human), UniProt Q15858) (assay: Human Nav1.7 inhibitory activity evaluation (automated patch clamp QPatch16X, HEK293A cells stably expressing human Nav1.7 and human Navβ1)). Settings: human Nav1.7, automated patch clamp.
Assay type: cell-based
Method in brief: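 QPatch16X whole-cell recordings at room temperature from HEK293A cells stably expressing human Nav1.7 with Navβ1, CsF-based internal solution, pH 7.4 external, 0.1% DMSO. From −100 mV holding, protocol included a 15 s hold at a potential inactivating ~30-40% of channels; IC50 from inward current at the second −10 mV pulse.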

human Nav1.7, sequence (Q15858 whole entry): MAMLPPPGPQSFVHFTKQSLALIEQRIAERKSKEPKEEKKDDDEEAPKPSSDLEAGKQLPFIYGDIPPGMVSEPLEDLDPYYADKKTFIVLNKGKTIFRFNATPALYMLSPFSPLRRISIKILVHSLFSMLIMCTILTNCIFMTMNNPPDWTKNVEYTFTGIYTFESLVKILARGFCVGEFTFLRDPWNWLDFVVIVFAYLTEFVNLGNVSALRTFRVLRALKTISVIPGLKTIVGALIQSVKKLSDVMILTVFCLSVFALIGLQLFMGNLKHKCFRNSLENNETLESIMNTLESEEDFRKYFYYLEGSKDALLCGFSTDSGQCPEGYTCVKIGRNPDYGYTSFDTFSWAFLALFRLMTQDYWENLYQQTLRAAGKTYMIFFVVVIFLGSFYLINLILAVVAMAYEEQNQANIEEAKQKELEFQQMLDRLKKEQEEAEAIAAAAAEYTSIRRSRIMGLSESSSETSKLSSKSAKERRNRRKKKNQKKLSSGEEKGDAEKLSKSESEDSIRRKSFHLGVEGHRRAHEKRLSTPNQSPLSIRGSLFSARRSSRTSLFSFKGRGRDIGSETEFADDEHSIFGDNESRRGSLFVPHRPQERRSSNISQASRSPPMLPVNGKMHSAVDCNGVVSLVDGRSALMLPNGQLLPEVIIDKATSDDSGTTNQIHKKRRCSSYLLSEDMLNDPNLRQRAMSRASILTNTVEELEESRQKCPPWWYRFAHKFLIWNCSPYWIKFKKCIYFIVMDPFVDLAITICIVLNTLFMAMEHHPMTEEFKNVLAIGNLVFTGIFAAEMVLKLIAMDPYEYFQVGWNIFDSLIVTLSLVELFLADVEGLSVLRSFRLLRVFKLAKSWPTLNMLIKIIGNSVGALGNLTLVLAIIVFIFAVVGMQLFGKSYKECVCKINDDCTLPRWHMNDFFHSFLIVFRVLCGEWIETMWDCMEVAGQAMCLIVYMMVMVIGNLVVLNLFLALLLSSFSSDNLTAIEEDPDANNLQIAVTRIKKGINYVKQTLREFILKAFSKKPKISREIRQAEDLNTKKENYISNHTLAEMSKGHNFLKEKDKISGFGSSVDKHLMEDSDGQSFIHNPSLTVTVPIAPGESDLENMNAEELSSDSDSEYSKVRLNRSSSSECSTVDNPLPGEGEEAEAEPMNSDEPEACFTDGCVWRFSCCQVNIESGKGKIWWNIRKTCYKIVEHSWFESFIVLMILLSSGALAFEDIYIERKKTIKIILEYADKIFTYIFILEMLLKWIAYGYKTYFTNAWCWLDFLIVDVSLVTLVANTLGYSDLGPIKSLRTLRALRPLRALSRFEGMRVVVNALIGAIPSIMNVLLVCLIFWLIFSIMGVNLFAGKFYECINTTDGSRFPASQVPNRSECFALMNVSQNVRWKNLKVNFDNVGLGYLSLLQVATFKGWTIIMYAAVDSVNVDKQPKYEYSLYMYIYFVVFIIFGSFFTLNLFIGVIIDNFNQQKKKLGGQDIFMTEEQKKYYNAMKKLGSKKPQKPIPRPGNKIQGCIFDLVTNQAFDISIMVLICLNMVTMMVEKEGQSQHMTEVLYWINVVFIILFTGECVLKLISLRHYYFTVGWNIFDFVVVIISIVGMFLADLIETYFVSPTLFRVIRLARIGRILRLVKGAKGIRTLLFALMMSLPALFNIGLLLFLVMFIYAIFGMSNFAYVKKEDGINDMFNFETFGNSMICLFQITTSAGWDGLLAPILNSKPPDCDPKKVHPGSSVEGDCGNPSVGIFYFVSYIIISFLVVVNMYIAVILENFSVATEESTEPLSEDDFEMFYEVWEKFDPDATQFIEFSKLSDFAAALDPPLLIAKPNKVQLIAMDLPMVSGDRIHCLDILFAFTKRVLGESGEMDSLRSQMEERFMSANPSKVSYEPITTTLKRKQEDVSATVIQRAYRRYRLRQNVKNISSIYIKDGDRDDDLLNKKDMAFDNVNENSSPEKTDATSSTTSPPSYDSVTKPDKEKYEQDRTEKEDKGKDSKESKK
human Nav1.7, sequence (Q07699 19-218 partner): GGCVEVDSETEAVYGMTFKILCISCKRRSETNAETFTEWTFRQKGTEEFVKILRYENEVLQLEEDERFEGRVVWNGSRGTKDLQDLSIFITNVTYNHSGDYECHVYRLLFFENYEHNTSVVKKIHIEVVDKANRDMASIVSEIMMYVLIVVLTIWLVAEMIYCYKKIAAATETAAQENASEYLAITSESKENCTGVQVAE

IC50 | Structure (SMILES)
< 1000 nM | O=C(N[C@H]1COc2ccc(Cl)cc2C1)c1cc2n(n1)CCC(COC(F)(F)F)O2 (stereo partly shown) [Example 420]
< 1000 nM | N#Cc1ccc2c(c1)C[C@@H](NC(=O)c1cc3n(n1)CCC(CSCC(F)(F)F)O3)CO2 (stereo partly shown) [Example 423]
< 10000 nM | N#Cc1ccc2c(c1)C[C@@H](NC(=O)c1cc3n(n1)CCC(CSCC(F)(F)F)O3)CO2 (stereo partly shown) [Example 424]
< 1000 nM | O=C(N[C@H]1COc2ccc(-c3cnn(CC(F)(F)F)c3)cc2C1)c1cc2n(n1)CCC(COCC1CC1)O2 (stereo partly shown) [Example 430]
< 1000 nM | O=C(N[C@H]1COc2ccc(C(F)(F)F)cc2C1)c1cc2n(n1)CCC(CCOC(F)F)O2 (stereo partly shown) [Example 433]
< 1000 nM | N#Cc1ccc2c(c1)C[C@@H](NC(=O)c1cc3n(n1)CCC(COCC1(C(F)(F)F)CC1)O3)CO2 (stereo partly shown) [Example 434]
< 1000 nM | O=C(N[C@H]1COc2ccc(-c3cnccn3)cc2C1)c1cc2n(n1)CCC(COCC1(C(F)(F)F)CC1)O2 (stereo partly shown) [Example 435]
< 1000 nM | C#Cc1ccc2c(c1)C[C@@H](NC(=O)c1cc3n(n1)CCC(COCC(F)(F)F)O3)CO2 (stereo partly shown) [Example 436]
< 1000 nM | O=C(N[C@H]1COc2ccc(COCC(F)(F)F)cc2C1)c1cc2n(n1)CCC(COC1CCC1)O2 (stereo partly shown) [Example 438]
< 10000 nM | N#Cc1ccc2c(c1)C[C@@H](NC(=O)c1cc3n(n1)CCC(COC1CC(F)C1)O3)CO2 (stereo partly shown) [Example 439]
< 10000 nM | O=C(N[C@H]1COc2ccc(COCC(F)(F)F)cc2C1)c1cc2n(n1)CCC(CN1CC(F)(F)C1)O2 (stereo partly shown) [Example 440]
< 1000 nM | O=C(N[C@H]1COc2ccc(CC(F)(F)F)cc2C1)c1cc2n(n1)CCC(COCC(F)(F)F)O2 (stereo partly shown) [Example 441]
< 1000 nM | O=C(N[C@H]1COc2ccc(Cl)cc2C1)c1cc2n(n1)CCC(COCC(F)(F)F)O2 (stereo partly shown) [Example 442]
< 1000 nM | CC1CCn2nc(C(=O)N[C@H]3COc4ccc(Cl)cc4C3)c(-c3ccccc3)c2O1 (stereo partly shown) [Example 444]
< 10000 nM | Cc1c(C(=O)N[C@H]2COc3ccc(Cl)cc3C2)nn2c1OC(C)(C)C2 [Example 446]
< 1000 nM | O=C(N[C@H]1COc2ccc(Cl)cc2C1)c1cc2n(n1)CC(C(F)(F)COCC1CC1)O2 (stereo partly shown) [Example 449]
< 10000 nM | CCN(CC1Cn2nc(C(=O)N[C@H]3COc4ccc(C#N)cc4C3)cc2O1)CC(F)(F)F (stereo partly shown) [Example 452]
< 10000 nM | O=C(N[C@H]1COc2ccc(Cl)cc2C1)c1cc2n(n1)CC(Cn1cccn1)O2 (stereo partly shown) [Example 453]
< 1000 nM | N#Cc1ccc2c(c1)C[C@@H](NC(=O)c1cc3n(n1)CC(CCn1cc(C(F)(F)F)cn1)O3)CO2 (stereo partly shown) [Example 455]
< 1000 nM | CC1(C)CN(CC2Cn3nc(C(=O)N[C@H]4COc5ccc(C(F)(F)F)cc5C4)cc3O2)CCO1 (stereo partly shown) [Example 458]
< 1000 nM | O=C(N[C@H]1COc2ccc(C3CC3)cc2C1)c1cc2n(n1)CC(COCC1CC1)O2 (stereo partly shown) [Example 463]
< 1000 nM | N#Cc1ccc2c(c1)C[C@@H](NC(=O)c1cc3n(n1)CC(CCOCC1(C(F)(F)F)CC1)O3)CO2 (stereo partly shown) [Example 465]
< 1000 nM | O=C(N[C@H]1COc2ccc(-c3cnccn3)cc2C1)c1cc2n(n1)CC(CCOCC1(C(F)(F)F)CC1)O2 (stereo partly shown) [Example 467]
< 1000 nM | O=C(N[C@H]1COc2ccc(Cl)cc2C1)c1cc2n(n1)CC(COCC1CC1)O2 (stereo partly shown) [Example 469]

IC50 | Structure (SMILES)
< 1000 nM | O=C(N[C@H]1COc2ccc(CC(F)F)cc2C1)c1cc2n(n1)CC(CCOC1CCC1)O2 (stereo partly shown) [Example 471]
< 1000 nM | O=C(N[C@H]1COc2ccc(COCC(F)(F)F)cc2C1)c1cc2n(n1)CC(CCOC1CCC1)O2 (stereo partly shown) [Example 472]
< 1000 nM | Cn1cc(-c2ccc3c(c2)C[C@@H](NC(=O)c2cc4n(n2)CC(CCOC2CCC2)O4)CO3)cn1 (stereo partly shown) [Example 473]
< 1000 nM | O=C(N[C@H]1COc2ccc(-c3cnccn3)cc2C1)c1cc2n(n1)CC(CCOC1CCC1)O2 (stereo partly shown) [Example 474]
< 1000 nM | Cc1cnc(-c2ccc3c(c2)C[C@@H](NC(=O)c2cc4n(n2)CC(CCOC2CCC2)O4)CO3)cn1 (stereo partly shown) [Example 475]
< 1000 nM | O=C(N[C@H]1COc2ccc(C(F)(F)F)cc2C1)c1cc2n(n1)CC(CCN1CCC(F)(F)C1)O2 (stereo partly shown) [Example 476]
< 1000 nM | O=C(N[C@H]1COc2ccc(CC(F)F)cc2C1)c1cc2n(n1)CC(CCOCC(F)F)O2 (stereo partly shown) [Example 478]
< 1000 nM | O=C(N[C@H]1COc2ccc(CC(F)(F)F)cc2C1)c1cc2n(n1)CC(CCOCC(F)F)O2 (stereo partly shown) [Example 479]
< 10000 nM | O=C(N[C@H]1COc2ccc(Cl)cc2C1)c1cc2n(n1)CCCC(c1ccccc1)O2 (stereo partly shown) [Example 480]
< 1000 nM | O=C(N[C@H]1COc2ccc(COCC(F)(F)F)cc2C1)c1cc2n(n1)CCC(OCC(F)(F)F)CO2 (stereo partly shown) [Example 482]
< 10000 nM | N#Cc1ccc2c(c1)C[C@@H](NC(=O)c1cc3n(n1)CCC(C(F)(F)F)CO3)CO2 (stereo partly shown) [Example 483]
< 1000 nM | COc1cccc(-c2c(C(=O)N[C@H]3COc4ccc(C(F)(F)F)cc4C3)nn3c2COCC3)n1 [Example 484]
< 1000 nM | O=C(N[C@H]1COc2ccc(C(F)(F)F)cc2C1)c1nn2c(c1-c1cccc(Cl)n1)COCC2 [Example 485]
< 1000 nM | O=C(N[C@H]1COc2ccc(C(F)(F)F)cc2C1)c1nn2c(c1-c1ccn[nH]1)OCCC2 [Example 486]
< 1000 nM | N#Cc1ccc2c(c1)C[C@@H](NC(=O)c1cc3n(n1)CCN(CC1CCC1)C3)CO2 [Example 498]
< 10000 nM | CC(C)(c1ccccn1)N1CCn2nc(C(=O)N[C@H]3COc4ccc(C#N)cc4C3)cc2C1 [Example 501]
< 10000 nM | N#Cc1ccc2c(c1)C[C@@H](NC(=O)c1cc3n(n1)CCN(C1(CC(F)(F)F)CC1)C3)CO2 [Example 503]
< 1000 nM | O=C(N[C@H]1COc2ccc(COCC(F)(F)F)cc2C1)c1cc2n(n1)CCN(CCC1CC1)C2 [Example 505]
< 1000 nM | O=C(NC1COc2ccccc2C1)c1cc2n(n1)CCN(c1ccc(F)cc1)C2 (stereo not shown) [Example 508]
< 10000 nM | O=C(N[C@H]1COc2ccc(Cl)cc2C1)c1nn2c(c1-c1ccccc1)CN(CC(F)(F)F)CC2 [Example 509]
< 10000 nM | O=C(NC1COc2ccccc2C1)c1cc2n(n1)CCN(C(=O)CCc1ccccc1)C2 (stereo not shown) [Example 510]
< 10000 nM | O=C(NC1COc2ccccc2C1)c1cc2n(n1)CCN(S(=O)(=O)c1ccccc1C(F)(F)F)C2 (stereo not shown) [Example 511]
< 10000 nM | Cc1cc(-c2c(C(=O)N[C@H]3COc4ccc(C(F)(F)F)cc4C3)nc3n2CCOC3)[nH]n1 [Example 512]
< 1000 nM | O=C(N[C@H]1COc2ccc(C(F)(F)F)cc2C1)c1nn2c(c1-c1cccc(F)n1)COCC2 [Example 513]

IC50 | Structure (SMILES)
< 1000 nM | O=C(N[C@H]1COc2ccc(Cl)cc2C1)c1nn2c(c1-c1ccccn1)COCC2 [Example 515]
< 10000 nM | CCc1cccc(-c2c(C(=O)N[C@H]3COc4ccc(C#N)cc4C3)nn3c2COCC3)n1 [Example 516]
< 10000 nM | O=C(N[C@H]1COc2ccc(C(F)(F)F)cc2C1)c1nn2c(c1-c1ccc3cccnc3c1)COCC2 [Example 517]
< 10000 nM | O=C(N[C@H]1COc2ccc(C(F)(F)F)cc2C1)c1nn2c(c1-c1cccc(CO)n1)COCC2 [Example 519]
< 1000 nM | O=C(N[C@H]1COc2ccc(C(F)(F)F)cc2C1)c1nn2c(c1-c1cccc(COCC(F)(F)F)n1)COCC2 [Example 520]
< 1000 nM | O=C(N[C@H]1COc2ccc(C(F)(F)F)cc2C1)c1nn2c(c1-c1cccc(CC(F)(F)F)n1)COCC2 [Example 523]
< 10000 nM | Cc1cccc(-c2c(C(=O)N[C@H]3COc4ccc(C(F)(F)F)cc4C3)nn3c2NCCC3)n1 [Example 524]
< 10000 nM | O=C(N[C@H]1COc2ccc(COCC(F)(F)F)cc2C1)c1nn2c(c1-c1ccccn1)NCCC2 [Example 525]
< 1000 nM | O=C(N[C@H]1COc2ccc(C(F)(F)F)cc2C1)c1nn2c(c1-c1cccc(C(O)C(F)(F)F)n1)COCC2 (stereo partly shown) [Example 527]
< 10000 nM | O=C(N[C@H]1COc2ccc(C(F)(F)F)cc2C1)c1nn2c(c1-c1ccccn1)COCCC2 [Example 528]
< 1000 nM | COc1cccc(-c2c(C(=O)N[C@H]3COc4ccc(C(F)(F)F)cc4C3O)nn3c2COCC3)n1 (stereo partly shown) [Example 529]
< 1000 nM | O=C(N[C@H]1COc2ccc(C(F)(F)F)cc2C1)c1cc2n(n1)CCC(COCC1(F)CC1)O2 (stereo partly shown) [Example 533]
< 10000 nM | O=C(N[C@H]1COc2ccc(C(F)(F)F)cc2C1OCC(F)(F)F)c1cc2n(n1)CCC(C(F)F)O2 (stereo partly shown) [Example 536]
< 10000 nM | O=C(N[C@H]1COc2cc(C(F)(F)F)nn2C1)c1cc2n(n1)CCC(c1ccccc1F)O2 (stereo partly shown) [Example 537]
< 10000 nM | O=C(N[C@H]1COc2ccc(C(F)(F)F)cc2C1)c1cc2n(n1)CC(COCC1CC1)CO2 (stereo partly shown) [Example 539]
< 10000 nM | O=C(NCC1COc2ccc(Cl)cc2C1)c1cc2n(n1)CCC(COC(F)(F)F)O2 (stereo not shown) [Example 542]
< 10000 nM | CCC1(O)c2cc(C(F)(F)F)ccc2OC[C@@H]1NC(=O)c1cc2n(n1)CCC(C(F)F)O2 (stereo partly shown) [Example 544]
< 1000 nM | O=C(N[C@H]1COc2ccc(COCC(F)(F)F)cc2C1)c1cc2n(n1)CCC1(CC1)CO2 [Example 545]
< 1000 nM | O=C(N[C@H]1COc2ccc(C(F)(F)F)cc2C1OC(F)(F)F)c1cc2n(n1)CCC(C(F)F)O2 (stereo partly shown) [Example 546]
< 10000 nM | CCC1CCn2nc(C(=O)N[C@H]3COc4ccc(C(F)(F)F)nc4C3)cc2O1 (stereo partly shown) [Example 549]
< 1000 nM | O=C(N[C@H]1COc2ccc(C(F)(F)F)nc2C1)c1cc2n(n1)CCC(c1ccccc1F)O2 (stereo partly shown) [Example 550]
< 10000 nM | COc1c(C(F)(F)F)ccc2c1C[C@@H](NC(=O)c1cc3n(n1)CCC(C(F)F)O3)CO2 (stereo partly shown) [Example 551]
< 10000 nM | N#CC1(COCC2CCn3nc(C(=O)N[C@H]4COc5ccc(C(F)(F)F)cc5C4)cc3O2)CC1 (stereo partly shown) [Example 553]
< 1000 nM | N#Cc1ccc2c(c1)C[C@@H](NC(=O)c1cc3n(n1)CCC(COCC(F)(F)F)CO3)CO2 (stereo partly shown) [Example 555]

Structure (SMILES) | IC50
O=C(N[C@H]1COc2ccc(Cl)cc2C1)c1cn2c(n1)CC(CNCC(F)(F)F)CO2 (stereo partly shown) [Example 548] | < 10000 nM
